The values below come from patent US20240292837A1, “CHROMONE DERIVATIVES AS ATTRACTANTS AND REPELLENTS OF BLOOD-SUCKING, BITING INVERTEBRATES” (CENTRE NATIONAL DE LA RECHERCHE SCIENTIFIQUE, priority 2021, published 2024).

The experiment deals with Aedes albopictus. The experiment in a line: Evaluation of the repellent and/or attractant effect in a tunnel olfactometer. The format is in vivo. The following applies: for Control (±SD), mean number of mosquitoes in the control zone / Treated/Product (±SD), mean number of mosquitoes in the treated zone / Treated (±SD), mean number of mosquitoes in the treated zone: 15 females; for RI (%) repulsion index / Repulsion index 5 mg deposition / Repulsion index 10 mg deposition / Repulsion index 30 mg deposition / KI (%) kairomone index: negative = attractant; for repellent or attractant effect (in words): over the doses tested; for repellent effect compared with Picaridin and DEET (in words): equivalent/identical doses (10 and 30 mg/ml). The text has this: The tunnel olfactometer is a 1 m long glass parallelepiped with a 5×5 cm side. The tube is equipped with 3 openings: two on each side, one for feeding in the paper impregnated with the product to be tested, and the other for the paper containing a control. The opening in the middle is for feeding in mosquitoes. Both ends of the tube are closed by covers.
The olfactometer is divided into three compartments or zones: • a neutral zone in the middle; • a test or treated area which is on the side of depositing the product; and • a control area which is located on the side of depositing the control.
For each test, 15 Aedes albopictus females (aged 5 to 12 days) are fed into the neutral zone of the tunnel olfactometer. Mosquitoes are kept for 10 minutes for a time of adaptation. Papers impregnated and dried with a solution of product in ethanol and pure ethanol as a reference are fed in, then the barriers are opened to allow mosquitoes to circulate freely inside the tube. Three test repetitions were carried out for each product. A repetition lasts 20 minutes and the results observed were recorded every 5 minutes.
The values measured are the activity index and the repulsion index. The activity index (Al) describes the percentage of mosquitoes in the control zone (T) and in the treated zone (P) with respect to the total number of mosquitoes tested. Said value should be greater than 30% for the test to be considered significant.
The repulsion index (RI) represents the percentage of the difference in the number of mosquitoes in the control part and in the treated part divided by the sum of the two values. A negative value of the parameter (RI) indicates an attractant activity (kairomone index. KI) of the product tested.
[formula] • Al: Activity index • RI: Repulsion index • T: Number of mosquitoes in the control area • P: Number of mosquitoes in the treated area

`CCC(C)Oc1ccc2c(=O)ccoc2c1` (racemic) [7-sec-butoxychromone]: the “repellent or attractant effect (in words)” value was “repellent at any dose”. Further, where the note is “dose 5 mg/ml”, the “AI (%) activity index” value is recorded as 71.1%; the “Treated/Product (±SD), mean number of mosquitoes in the treated zone” value (shortened to “Treated/Product (±SD), mean number”) is reported as 3.3 ± 0.1; the “RI (%) repulsion index” value was found to be 37.6%. Moreover, under “dose 5 mg/ml in treated zone”, the “Control (±SD), mean number of mosquitoes in the control zone” value (“Control (±SD), mean number of mosquitoes” for short) was 7.3 ± 0.4. Moreover, under “dose 10 mg/ml”, the “AI (%) activity index” value is on record as 71.8%; the “Treated/Product (±SD), mean number” value is 3.6 ± 0.4; the “RI (%) repulsion index” value worked out at 37.9%. For the same compound, the “Control (±SD), mean number of mosquitoes” value (dose 10 mg/ml in treated zone) is on record as 7.2 ± 0.9. Also, for the setting “dose 30 mg/ml”, the “AI (%) activity index” value came to 78%; the “Treated/Product (±SD), mean number” value came to 3.4 ± 0.9; the “RI (%) repulsion index” value is 56.1%. Besides, the “Control (±SD), mean number of mosquitoes” value (dose 30 mg/ml in treated zone) amounted to 8.3 ± 0.5. Further, where the note is “dose 60 mg/ml”, the “AI (%) activity index” value was determined as 90.6%; the “Treated/Product (±SD), mean number” value stood at 1.8 ± 0.2; the “RI (%) repulsion index” value is given as 72.9%. Moreover, the “Control (±SD), mean number of mosquitoes” value (dose 60 mg/ml in treated zone) stood at 11.8 ± 0.7.
Regarding `CCCC(C)Oc1ccc2c(=O)ccoc2c1` (racemic) [7-sec-pentoxychromone], the “Repulsion index 5 mg deposition” value was −59.2%, the “Repulsion index 10 mg deposition” value is listed as −47.8%, the “Repulsion index 30 mg deposition” value is recorded as −28.7% and the “repellent or attractant effect (in words)” value was “attractant”. Where the note is “dose 1 mg/ml”, the “AI (%) activity index” value was determined as 85%; the “Treated (±SD), mean number of mosquitoes in the treated zone” value came out at 9.3 ± 0.7; the “KI (%) kairomone index” value was −45.6%. Besides, under “dose 1 mg/ml in treated zone”, the “Control (±SD), mean number of mosquitoes” value was 3.5 ± 0.5. For the setting “dose 5 mg/ml”, the “AI (%) activity index” value was 80.1%; the “Treated/Product (±SD), mean number” value is 9.5 ± 0.2; the “KI (%) kairomone index” value was −59.2%. Besides, for the setting “dose 5 mg/ml in treated zone”, the “Control (±SD), mean number of mosquitoes” value was 2.5 ± 0.3. Moreover, for the setting “dose 10 mg/ml”, the “AI (%) activity index” value is recorded as 88.3%; the “Treated/Product (±SD), mean number” value is listed as 9.8 ± 1.1; the “KI (%) kairomone index” value was −47.9%. The “Control (±SD), mean number of mosquitoes” value (dose 10 mg/ml in treated zone) worked out at 3.4 ± 0.4. In addition, under “dose 30 mg/ml”, the “AI (%) activity index” value is listed as 90%; the “Treated/Product (±SD), mean number” value is reported as 8.7 ± 0.4; the “KI (%) kairomone index” value is reported as −28.6%. Besides, under “dose 30 mg/ml in treated zone”, the “Control (±SD), mean number of mosquitoes” value is on record as 4.8 ± 0.4.
Consider `CCCCCCCCCCOc1ccc2c(=O)ccoc2c1` [7-n-decyloxychromone], for which, for the setting “dose 10 mg/ml”, the “AI (%) activity index” value amounted to 85%; the “Treated/Product (±SD), mean number” value was found to be 8.8 ± 0.9; the “KI (%) kairomone index” value is given as −37.8 ± 5.2%. Further, under “dose 10 mg/ml in treated zone”, the “Control (±SD), mean number of mosquitoes” value amounted to 3.9 ± 0.3. Also, where the note is “same doses”, the “attractant effect compared with a reference attractant (in words)” value is listed as “attractant effect equivalent to that of 7-sec-nonyloxychromone”.
Turning to `CCN(CC)C(=O)c1cccc(C)c1` [DEET, reference compound], the “Repulsion index 5 mg deposition” value was found to be 55.5%, the “Repulsion index 10 mg deposition” value is 60.4% and the “Repulsion index 30 mg deposition” value came to 59.1%.
The matching figures for `C=CC(O)CCCCC` (centres unmarked) [Octen-3-ol, octen-3-ol, reference compound]: −41.7%, −54.7% and −61.6%.
Taken in the same sequence, the figures for `CCC(C)OC(=O)N1CCCCC1CCO` (centres unmarked) [Picaridin, reference compound] were 42.6%, 49.6% and 59.7%.
On to `CC[C@H](C)Oc1ccc2c(=O)ccoc2c1` [S-(+)-sec-butoxychromone], for which the “repellent or attractant effect (in words)” value was “attractant at low doses and repellent at high doses”. In addition, where the note is “dose 5 mg/ml”, the “AI (%) activity index” value is 91.7%; the “Treated/Product (±SD), mean number” value was determined as 9.0 ± 0.2; the “RI (%) repulsion index” value is given as −31.2%. For the same compound, the “Control (±SD), mean number of mosquitoes” value (dose 5 mg/ml in treated zone) is 4.8 ± 0.5. Under “dose 10 mg/ml”, the “AI (%) activity index” value was found to be 87.2%; the “Treated/Product (±SD), mean number” value turned out to be 8.9 ± 1.1; the “RI (%) repulsion index” value is reported as −35.8%. Moreover, for the setting “dose 10 mg/ml in treated zone”, the “Control (±SD), mean number of mosquitoes” value amounted to 4.2 ± 0.9. For the same compound, for the setting “dose 30 mg/ml”, the “AI (%) activity index” value is 83.3%; the “Treated/Product (±SD), mean number” value stood at 3.3 ± 0.2; the “RI (%) repulsion index” value came to 47.9%. Besides, the “Control (±SD), mean number of mosquitoes” value (dose 30 mg/ml in treated zone) worked out at 9.3 ± 0.8. Also, for the setting “dose 60 mg/ml”, the “AI (%) activity index” value was found to be 89.4%; the “Treated/Product (±SD), mean number” value is given as 2.0 ± 0.0; the “RI (%) repulsion index” value is listed as 70.5%. The “Control (±SD), mean number of mosquitoes” value (dose 60 mg/ml in treated zone) is given as 11.4 ± 0.8.
As for `CCC[C@H](C)Oc1ccc2c(=O)ccoc2c1` [S-(+)-sec-pentoxychromone], the “repellent or attractant effect (in words)” value is listed as “attractant”. In addition, for the setting “dose 1 mg/ml”, the “AI (%) activity index” value is on record as 93.3%; the “Treated (±SD), mean number of mosquitoes in the treated zone” value is on record as 10.3 ± 0.7; the “KI (%) kairomone index” value was −46.3%. Further, the “Control (±SD), mean number of mosquitoes” value (dose 1 mg/ml in treated zone) turned out to be 3.8 ± 0.3. Further, for the setting “dose 5 mg/ml”, the “AI (%) activity index” value was 83.9%; the “Treated/Product (±SD), mean number” value turned out to be 9.5 ± 0.7; the “KI (%) kairomone index” value is recorded as −52.4%. For the same compound, the “Control (±SD), mean number of mosquitoes” value (dose 5 mg/ml in treated zone) came to 3.1 ± 1.2. Moreover, for the setting “dose 10 mg/ml”, the “AI (%) activity index” value turned out to be 95%; the “Treated/Product (±SD), mean number” value stood at 8.4 ± 0.1; the “KI (%) kairomone index” value is −18.2%. Further, for the setting “dose 10 mg/ml in treated zone”, the “Control (±SD), mean number of mosquitoes” value worked out at 5.8 ± 0.2. Further, where the note is “dose 30 mg/ml”, the “AI (%) activity index” value was determined as 77.8%; the “Treated/Product (±SD), mean number” value came to 6.5 ± 0.7; the “KI (%) kairomone index” value is listed as −10.7%. Moreover, under “dose 30 mg/ml in treated zone”, the “Control (±SD), mean number of mosquitoes” value was 5.2 ± 0.3.
As to R-(−)-sec-butoxychromone, the “Repulsion index 5 mg deposition” value came to 51%, the “Repulsion index 10 mg deposition” value is reported as 65.6%, the “Repulsion index 30 mg deposition” value is listed as 79.5% and the “repellent or attractant effect (in words)” value is recorded as “repellent at any dose”. Also, for the setting “dose 5 mg/ml”, the “AI (%) activity index” value stood at 84%; the “Treated/Product (±SD), mean number” value is 3.1 ± 0.1; the “RI (%) repulsion index” value is reported as 51.3%. Also, the “Control (±SD), mean number of mosquitoes” value (dose 5 mg/ml in treated zone) was found to be 9.5 ± 0.3. Moreover, for the setting “dose 10 mg/ml”, the “AI (%) activity index” value came to 88.9%; the “Treated/Product (±SD), mean number” value came out at 2.3 ± 0.7; the “RI (%) repulsion index” value turned out to be 65.6%. Further, for the setting “dose 10 mg/ml in treated zone”, the “Control (±SD), mean number of mosquitoes” value was found to be 11 ± 0.3. For the setting “dose 30 mg/ml”, the “AI (%) activity index” value was determined as 92.2%; the “Treated/Product (±SD), mean number” value amounted to 1.4 ± 0.1; the “RI (%) repulsion index” value is 79.5%. Moreover, the “Control (±SD), mean number of mosquitoes” value (dose 30 mg/ml in treated zone) is reported as 12.4 ± 0.1. Also, for the setting “dose 60 mg/ml”, the “AI (%) activity index” value amounted to 92%; the “Treated/Product (±SD), mean number” value amounted to 1.6 ± 0.2; the “RI (%) repulsion index” value was 76.6%. The “Control (±SD), mean number of mosquitoes” value (dose 60 mg/ml in treated zone) was 12.2 ± 0.1. The “repellent effect compared with Picaridin and DEET (in words)” value (listed as (R) 7-sec-butoxychromone) is “as effective and more effective than Picaridin and DEET”. For the same compound, the “repellent effect compared with Picaridin and DEET (in words)” value (listed as enantiomer R) was “as significant as DEET and picaridin”.
